According to US10821104B2, “Five-membered heterocyclic amides WNT pathway inhibitor” (SUZHOU SINOVENT PHARMACEUTICALS CO., LTD., priority 2015, dated 2020):
pIC50: −log10 of the molar value. Read-outs that look alike come from different tables or passages of the source.

Legend:
zebrafish axis formation = experiment: Effect of compounds on axis formation of zebrafish (zebrafish phenotype screening); format: in vivo, Zebrafish Danio rerio; conditions: embryos treated from 3 h to 48 h post fertilization, concentration at which 50% of axis formation is inhibited, read-out: IC50, inhibition of axis formation of zebrafish
Method: Method: Zebrafish embryos were collected after natural spawning. Embryos were treated from the 16 cell stage (3 hours post fertilization) with different concentration series 100 μM˜0.001 μM of the compound in 1% DMSO/fish water or with DMSO equivalent. The zebrafish were placed in a 6-well microplate at a density of 20 zebrafish per well with 3 mL of fish water. Zebrafish were incubated at 28.5° C. in the dark until 48 h post fertilization, then anesthetized, and imaged under a dissecting stereomicroscope installed with a high-speed video camera (JVC, Japan). Quantitative length of axis was performed with NIS-Elements D 3.1 soft and pixels data were expressed as mean±SEM. The effect of compound on axis formation of zebrafish was calculated based on the following formula: Inhibition on axis growth (%)=[1−Pixel(compound)/Pixel(vehicle)]×100%
(§1) Inhibition curves were generated using GraphPad Prism 6.0 (GraphPad Software Inc., San Diego Calif.) and IC50 was determined with logistic regression.

[1] = test system: Wnt/β-catenin reporter (Super 8×TOPFLASH) in HEK293 cells cocultured with L-Wnt3a-expressing cells; experiment: 293T/TOPLUC-Wnt3a luciferase reporter gene assay; format: cell-based; conditions: read-out: IC50, inhibition of Wnt/β-catenin reporter gene readout
Method: In this assay, HEK293 cells harboring a luciferase-based Wnt/β-catenin reporter (Super 8×TOPFLASH) were cocultured with L-Wnt3a-expressing cells. 293T/TOPLUC-Wnt3a were incubated with small molecules for 24 h. The level of the Luciferase reporter gene was used as an indicator for Wnt ligand-driven, LEF/TCF-dependent transcriptional activities. IC50 is defined as the compound concentration at which 50% of luciferase reporter activity is inhibited.
Results: REX-P compounds were investigated on CrownBio Cell plateform to assay the activity of inhibiting Wnt/β-catenin reporter activity, results are shown in Table 3.

[2] = test system: regeneration of zebrafish tailfin resected; experiment: Effect of compounds on tailfin regeneration of zebrafish (resected caudal fin); format: in vivo; conditions: Danio rerio; 3 d.p.f. zebrafish with resected caudal fins treated until 7 d.p.f.; read-out: IC50, inhibition of regeneration of zebrafish tailfin resected
Method: Method: Three days post fertilization (d.p.f) zebrafish with resected caudal fins were placed in water containing 1% DMSO carrier or compounds (10 μM˜0.001 μM) until 7 d.p.f. The zebrafish were placed in a 6-well microplate at a density of 15 zebrafish per well with 3 mL of fish water. Zebrafish were incubated at 28.5° C. in the dark until 7 d.p.f., then anesthetized, and imaged under a dissecting stereomicroscope installed with a high-speed video camera (JVC, Japan). Quantitative length of regeneration of tailfin was performed and pixels data were expressed as mean±SEM. The effect of compound on regeneration of tailfin of zebrafish was calculated based on the following formula: Drug inhibition on regeneration of tailfin (%)=[1−Pixel(compound)/Pixel(vehicle)]×100%.
as §1

[3] = Metabolic stability in human liver microsomes; format: in vitro ADME
Excerpt: (§2) Metabolic stability and pharmacokinetic characteristics of REX-P-7 were detected in human and mouse liver microsomes and in Balb/c mice, respectively.

[4] = Metabolic stability in mouse liver microsomes; format: in vitro ADME
Excerpt: as §2

[5] = In vivo PK in Balb/c mice
Method: as §2
Method of PK experiment: 18 male Balb/c mice were divided into 2 groups, 9 animals in each group. Group 1 was administered intravenously with REX-P-7 at a dose of 5 mg/kg. Group 2 was administered orally with REX-P-7 at a dose of 10 mg/kg. Blood samples (100 μL) for PK analysis were collected into EDTA microtainers (K2 EDTA, the final concentration in blood sample is 0.25 mg/mL) from retro orbital plexus at pre-dose, 0.083, 0.25, 0.5, 1, 2, 4, 8, 24 hours post-dosing for PO and IV groups. Immediately after collection, blood collection tubes were gently inverted at least 5 times, ensuring complete mixing, then immediately placed on ice. The blood was centrifuged at 8000 rpm for 5 min at 4° C. to separate the plasma from the blood cells. After separation, 35 μL plasma was transferred into clean tube labeled by the compound name, animal number and timepoint. Plasma was stored at −80° C. until analysis.

[6] = Homo sapiens, HEK293, 24 h incubation
[7] = Balb/c mice, summary of Table 4
[8] = IV dose 5 mg/kg, male Balb/c mice, plasma
[9] = PO dose 10 mg/kg, male Balb/c mice, plasma

Molecule | pIC50 (zebrafish axis formation; Danio rerio) | pIC50 [1, 6] | pIC50 [2] | other results
Cc1cc(-c2ncc(CNC(=O)c3ncc(-c4ccccc4)s3)cc2C)ccn1 [REX-P-4, N-((2′,3-dimethyl-[2,4′-bipyridin]-5-yl)methyl)-5-phenylthiazole-2-carboxamide] | 7.43 | > 10.00 |  | 
Cc1cc(-c2ncc(CNC(=O)c3csc(-c4ccccc4)n3)cc2C)ccn1 [REX-P-5, N-((2′,3-dimethyl-[2,4′-bipyridin]-5-yl)methyl)-2-phenylthiazole-4-carboxamide] | < 4.40 | < 6.00 |  | 
5-(4-chlorophenyl)-N-((2′,3-dimethyl-[2,4′-bipyridin]-5-yl)methyl)thiazole-2-carboxamide [REX-P-13] |  |  |  | pIC50 (zebrafish axis formation): < 5.00; pIC50 ([1]; 24 h incubation): < 6.00
Cc1cc(-c2ncc(CNC(=O)c3nnc(-c4cnccn4)s3)cc2C)ccn1 [REX-P-52, N-((2′,3-dimethyl-[2,4′-bipyridin]-5-yl)methyl)-5-(pyrazin-2-yl)-1,3,4-thiadiazole-2-carboxamide] | 6.19 | 8.86 | 6.13 | 
Cc1cc(-c2ncc(CNC(=O)c3nnc(-c4ccccn4)s3)cc2C)ccn1 [REX-P-47, N-((2′,3-dimethyl-[2,4′-bipyridin]-5-yl)methyl)-5-(pyridin-2-yl)-1,3,4-thiadiazole-2-carboxamide] | 6.79 | 9.17 | 6.68 | 
Cc1cc(-c2ncc(CNC(=O)c3cc(-c4ccccc4)n(C)n3)cc2C)ccn1 [REX-P-9, N-((2′,3-dimethyl-[2,4′-bipyridin]-5-yl)methyl)-1-methyl-5-phenyl-1H-pyrazole-3-carboxamide] | < 4.70 | < 6.00 |  | 
Cc1cc(-c2ncc(CNC(=O)c3cnc(-c4ccccc4)s3)cc2C)ccn1 [REX-P-3, N-((2′,3-dimethyl-[2,4′-bipyridin]-5-yl)methyl)-2-phenylthiazole-5-carboxamide] | 6.84 | > 10.00 | 7.08 | 
Cc1cc(-c2ncc(CNC(=O)c3cc(-c4ccccc4)nn3C)cc2C)ccn1 [REX-P-1, N-((2′,3-dimethyl-[2,4′-bipyridin]-5-yl)methyl)-1-methyl-3-phenyl-1H-pyrazole-5-carboxamide] | 4.52 | 7.03 |  | 
Cc1cc(-c2ncc(CNC(=O)c3nnc(-c4cccc(Cl)c4)s3)cc2C)ccn1 [REX-P-45, 5-(3-chlorophenyl)-N-((2′,3-dimethyl-[2,4′-bipyridin]-5-yl)methyl)-1,3,4-thiadiazole-2-carboxamide] | 7.85 | 9.51 | 7.64 | 
Cc1cc(-c2ncc(CNC(=O)c3cnc(-c4cccc(Cl)c4)s3)cc2C)ccn1 [REX-P-22, 2-(3-chlorophenyl)-N-((2′,3-dimethyl-[2,4′-bipyridin]-5-yl)methyl)thiazole-5-carboxamide] | 6.75 | 9.14 | 7.55 | 
Cc1cc(-c2ncc(CNC(=O)c3cc(-c4ccccn4)[nH]n3)cc2C)ccn1 [REX-P-16, N-((2′,3-dimethyl-[2,4′-bipyridin]-5-yl)methyl)-5-(pyridin-2-yl)-1H-pyrazole-3-carboxamide] | < 5.00 | 7.78 |  | 
Cc1cc(-c2ncc(CNC(=O)c3nnc(-c4ncccc4C)s3)cc2C)ccn1 [REX-P-56, N-((2′,3-dimethyl-[2,4′-bipyridin]-5-yl)methyl)-5-(3-methylpyridin-2-yl)-1,3,4-thiadiazole-2-carboxamide] | 7.21 |  |  | 
Cc1cc(-c2ncc(CNC(=O)c3ncc(-c4cccc(Cl)c4)s3)cc2C)ccn1 [REX-P-12, 5-(3-chlorophenyl)-N-((2′,3-dimethyl-[2,4′-bipyridin]-5-yl)methyl)thiazole-2-carboxamide] | < 4.00 | 8.04 |  | 
Cc1cc(-c2ncc(CNC(=O)c3nnc(-c4ncccc4F)s3)cc2C)ccn1 [REX-P-48, N-((2′,3-dimethyl-[2,4′-bipyridin]-5-yl)methyl)-5-(3-fluoropyridin-2-yl)-1,3,4-thiadiazole-2-carboxamide] | 6.05 |  | 6.14 | 
Cc1cc(-c2ncc(CNC(=O)c3nnc(-c4cccc(C)n4)s3)cc2C)ccn1 [REX-P-50, N-((2′,3-dimethyl-[2,4′-bipyridin]-5-yl)methyl)-5-(6-methylpyridin-2-yl)-1,3,4-thiadiazole-2-carboxamide] | 7.19 | 9.41 | 6.95 | 
Cc1cc(-c2ncc(CNC(=O)c3nnc(-c4ccccc4)s3)cc2C)ccn1 [REX-P-8, N-((2′,3-dimethyl-[2,4′-bipyridin]-5-yl)methyl)-5-phenyl-1,3,4-thiadiazole-2-carboxamide] | 7.68 | 8.72 | 7.57 | 
Cc1cc(-c2ncc(CC(=O)Nc3ccc(-c4cnccn4)cn3)cc2C)ccn1 [LGK-974, reference compound] | 6.23 | 9.24 | 6.34 | 
Cc1cc(-c2ncc(CNC(=O)c3nnc(-c4cncc(F)c4)s3)cc2C)ccn1 [REX-P-49, N-((2′,3-dimethyl-[2,4′-bipyridin]-5-yl)methyl)-5-(5-fluoropyridin-3-yl)-1,3,4-thiadiazole-2-carboxamide] | 7.28 | 9.61 | 6.86 | 
Cc1cc(-c2ncc(CNC(=O)c3nnc(-c4ncccn4)s3)cc2C)ccn1 [REX-P-51, N-((2′,3-dimethyl-[2,4′-bipyridin]-5-yl)methyl)-5-(pyrimidin-2-yl)-1,3,4-thiadiazole-2-carboxamide] | < 5.00 |  |  | 
Cc1cc(-c2ncc(CNC(=O)c3nc(-c4ccccc4)cs3)cc2C)ccn1 [REX-P-6, N-((2′,3-dimethyl-[2,4′-bipyridin]-5-yl)methyl)-4-phenylthiazole-2-carboxamide] | < 4.00 | < 6.00 |  | 
Cc1cc(-c2ncc(CNC(=O)c3cc(-c4ccccc4)on3)cc2C)ccn1 [REX-P-7, N-((2′,3-dimethyl-[2,4′-bipyridin]-5-yl)methyl)-5-phenylisoxazole-3-carboxamide] | 7.62 | 9.16 | 7.33 | Eh % (HLM) [3]: 56.7%; Eh % (MLM) [4]: 65%; bioavailability (in words) [5, 7]: good bioavailability; half-life (in words) [5, 7]: good half-life; CL (/F) ([5]; IV dose 5 mg/kg, male Balb/c mice): 2.83 mL/min/kg; AUC0-t/Dose [5, 8]: 5770 ng·h/mL; Cmax/Dose [5, 8]: 4167 ng/mL; AUC0-t/Dose [5, 9]: 2922 ng·h/mL; Cmax/Dose [5, 9]: 1923 ng/mL; half-life ([5]; mouse, plasma, IV dose 5 mg/kg, male Balb/c mice): 1.68 h; bioavailability ([5]; mouse, plasma, PO 10 mg/kg vs IV 5 mg/kg, male Balb/c mice): 50.6%; half-life ([5]; mouse, plasma, PO dose 10 mg/kg, male Balb/c mice): 1.62 h
Cc1cc(-c2ncc(CNC(=O)c3cc(-c4ccccc4)[nH]n3)cc2C)ccn1 [REX-P-2, N-((2′,3-dimethyl-[2,4′-bipyridin]-5-yl)methyl)-5-phenyl-1H-pyrazole-3-carboxamide] | 5.08 | 8.75 | 5.41 | 
Cc1cc(-c2ncc(CNC(=O)c3nnc(-c4cccc(F)c4)s3)cc2C)ccn1 [REX-P-46, N-((2′,3-dimethyl-[2,4′-bipyridin]-5-yl)methyl)-5-(3-fluorophenyl)-1,3,4-thiadiazole-2-carboxamide] | 8.00 | 9.90 | 7.80 | 
